Measurements as given in patent publication US20200009125A1, “Pharmaceutical Compositions For Poorly Water-Soluble Compounds” (ASCENDIA PHARMACEUTICALS, LLC, priority 2013, published 2020).
In brackets after ≈: the same amount, converted by molar mass.

Experiments:
[1] = cited from earlier work; for pKa: Source: Drugbank or FDA
[2] = cited from earlier work; for aqueous solubility in water: Source: Drugbank

In the case of `COC(=O)[C@H](c1ccccc1Cl)N1CCc2sccc2C1` [Clopidogrel, clopidogrel], the pKa [1] is listed as 4.5, the solubility (physchem; aqueous solution at pH 1.2, pH 1.2, simulated gastric fluid) is listed as 5200 µg/mL (≈ 16200 µM) and the solubility (physchem; aqueous solution at pH 6.8, pH 6.8, aqueous buffer) is listed as 14 µg/mL (≈ 43.5 µM).

In the case of `CC(C)Cc1ccc(C(C)C(=O)O)cc1` (centres unmarked) [Ibuprofen, ibuprofen], the “solubility of ibuprofen alone at pH 1.2” value ([2]; pH 1.2, drug alone, same figure as Drugbank water solubility) is given as 0.021 mg/mL.

In the case of `O=C(O)Cc1ccccc1Nc1c(Cl)cccc1Cl` [Diclofenac, diclofenac], the “solubility in intestinal fluid of neutral pH” value ([2]; as sodium salt, intestinal fluid of neutral pH) is given as 1113 μg/mL.

For `CCC(C)n1ncn(-c2ccc(N3CCN(c4ccc(OCC5COC(Cn6cncn6)(c6ccc(Cl)cc6Cl)O5)cc4)CC3)cc2)c1=O` (centres unmarked) [itraconazole], the “solubility in gastric fluid” value ([2]; gastric fluid) is given as 3500 µg/mL (≈ 4960 µM) and the “solubility in intestinal fluid” value ([2]; intestinal fluid) is given as 0.2 µg/mL (≈ 0.283 µM).

For `CC(=O)Oc1cc2c(s1)CCN(C(C(=O)C1CC1)c1ccccc1F)C2` (centres unmarked) [Prasugrel, prasugrel], the pKa [1] is listed as 5.48 and the “aqueous solubility in water” value [2] is listed as 2.37 µg/mL (≈ 6.35 µM).

For `COc1ccc(-n2nc(C(N)=O)c3c2C(=O)N(c2ccc(N4CCCCC4=O)cc2)CC3)cc1` [Apixaban, apixaban], the “detectable pKa” value ([1]; within pH range of 0.0-10.0, Source: Drugbank) is given as “no detectable pKa” and the “aqueous solubility in water” value [2] is given as 40 to 50 µg/mL.
